# Test results published in ChEMBL document CHEMBL1201862, “PubChem BioAssay data set” (2004).
#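 1) Cells in 96-well plates. 2) Compound, 48 h, 5 concentrations. 3) Linear interpolation between surrounding doses. 4) Unreached endpoint = highest concentration. Abbreviation: GI50, concentration required for 50% inhibition of growth.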 Active and inactive are the calls of the source. No stated cut-off is given here; in the data, active = GI50 up to about 1.1 µM and inactive = higher.
# Experiments:
# Assay in all cases: NCI tumour cell line growth inhibition, 48 h
# DLD-1 = test system: DLD-1
# M19-MEL = test system: M19-MEL
# XF498 = test system: XF498
# DMS-273 = test system: DMS-273
# HOP-18 = test system: HOP-18
# SNB-78 = test system: SNB-78
# DMS-114 = test system: DMS-114
# Hs-578T = test system: Hs-578T
# RXF 631 = test system: RXF 631
SMILES,GI50 (DLD-1),GI50 (M19-MEL),GI50 (DMS-273),GI50 (SNB-78),GI50 (DMS-114),GI50 (Hs-578T),also measured
CCCCCCCCCCCCC/C=C1\C[C@H](O)COC1=O,17 µM (inactive),18.4 µM (inactive),14.4 µM (inactive),18.4 µM (inactive),–,–,GI50 (XF498): 16.3 µM (inactive); GI50 (HOP-18): 17.4 µM (inactive)
COC1(OC)c2ccccc2C2(O)c3ccccc3C(=O)C12 (stereo unspecified),–,34.7 µM (inactive),25.2 µM (inactive),64.4 µM (inactive),35.6 µM (inactive),–,GI50 (XF498): 17.8 µM (inactive); GI50 (HOP-18): 52 µM (inactive)
COc1cc(C2OC(N)=C(C#N)C3=C2C(C)CCC3)cc(OC)c1OC (stereo unspecified),–,–,–,–,–,55.1 µM (inactive),–
Cc1nc(-[n+]2nc(-c3ccncc3)nn2-c2ccccc2)sc1C,–,–,–,–,–,44.4 µM (inactive),–
COc1cc(C(C)c2cc3c(cc2OCCNC(=O)COc2cc4c(cc2C(C)c2cc(OC)c(OC)c(OC)c2)OCO4)OCO3)cc(OC)c1OC (stereo unspecified),> 100 µM (inactive),80.2 µM (inactive),75.9 µM (inactive),–,26.9 µM (inactive),–,GI50 (RXF 631): 86.3 µM (inactive)
CCOC(=O)NC(=O)c1cn(CCN2CCN(C(=O)CCCCCCCCCCNc3ncnc4[nH]cnc34)CC2)c(=O)[nH]c1=O,> 100 µM (inactive),> 100 µM (inactive),> 100 µM (inactive),32.4 µM (inactive),–,–,GI50 (HOP-18): > 100 µM (inactive)
CCN(C(C)=N)c1ccccc1,> 100 µM (inactive),95.5 µM (inactive),–,> 100 µM (inactive),36.5 µM (inactive),–,GI50 (XF498): > 100 µM (inactive); GI50 (HOP-18): > 100 µM (inactive)
COc1cccc(C(NC2=NCCC=N2)c2cc3c(cc2O)OCO3)c1O (stereo unspecified),–,–,–,–,–,25.4 µM (inactive),–
COC(=O)c1nsc(OC)c1Cl,–,–,–,–,–,> 100 µM (inactive),–
CC(=O)N(CN1C(=O)CCC1C(=O)O)c1ccccc1 (stereo unspecified),–,–,–,–,–,> 53.3 µM (inactive),–
O=C(Nc1ccccc1)c1ccc(Cl)c([N+](=O)[O-])c1,23.4 µM (inactive),12.5 µM (inactive),3.45 µM (inactive),17.3 µM (inactive),16.6 µM (inactive),–,GI50 (XF498): 18 µM (inactive)
COc1ccc(/C=C/C(=O)C(C)(C)CN2CCCCC2)cc1,18 µM (inactive),16.4 µM (inactive),18.2 µM (inactive),17.1 µM (inactive),15 µM (inactive),–,GI50 (XF498): 16.5 µM (inactive); GI50 (HOP-18): 16.9 µM (inactive)
CC1OC(n2ccc3ccc([N+](=O)[O-])cc32)C(O)C(O)C1O (stereo unspecified),> 100 µM (inactive),> 100 µM (inactive),> 100 µM (inactive),> 100 µM (inactive),> 100 µM (inactive),–,GI50 (XF498): > 100 µM (inactive)
CC1(C)CCC[C@@]2(C)C1C(=O)[C@@H]1O[C@]1(C)[C@@H]2CO (stereo partly specified),–,–,–,–,–,34.3 µM (inactive),–
N#CC(C#N)=C(N)/C(C#N)=C/c1ccc(O)c(O)c1,71.3 µM (inactive),> 100 µM (inactive),59.2 µM (inactive),> 100 µM (inactive),25.1 µM (inactive),48.4 µM (inactive),GI50 (XF498): > 100 µM (inactive)
Cc1cccc(N/C(=C(/C(Cl)=C(Cl)Cl)[N+](=O)[O-])n2nnc3ccccc32)c1,–,–,–,–,–,4.91 µM (inactive),–

SMILES,GI50 (DLD-1),GI50 (M19-MEL),GI50 (DMS-273),GI50 (SNB-78),GI50 (DMS-114),GI50 (Hs-578T),also measured
CC(=O)NNc1nc(C)c(C(/C=C/c2ccc(Cl)cc2)=N/NC(=O)C[N+](C)(C)C)s1,> 100 µM (inactive),> 100 µM (inactive),> 100 µM (inactive),–,> 100 µM (inactive),–,GI50 (HOP-18): > 100 µM (inactive)
Cc1ccc(S(=O)(=O)N/N=C(\C(=O)Nc2cccc([N+](=O)[O-])c2)c2nc3ccc([N+](=O)[O-])cc3nc2O)cc1,> 100 µM (inactive),43.7 µM (inactive),–,> 100 µM (inactive),10.2 µM (inactive),–,–
CN(C)Cc1nsc(N(C)C)n1,–,–,–,–,–,> 100 µM (inactive),–
O=C1N[C@@H](c2c[nH]c3ccc(Br)cc23)C(=O)N[C@H]1c1c[nH]c2ccc(Br)cc12,–,–,–,–,–,11 µM (inactive),–
O=C/C=C/c1ccco1,–,–,–,–,–,> 100 µM (inactive),–
CO[C@@H]1C[C@H]2[C@@H]3CC[C@H]([C@H](C)COC(C)=O)[C@@]3(C)CC[C@@H]2[C@@]2(C)CC[C@H]3C[C@]312,–,–,–,–,–,> 100 µM (inactive),–
O=[N+]([O-])c1nccn1CC(O)c1ccccc1 (stereo unspecified),–,–,> 100 µM (inactive),–,> 100 µM (inactive),–,GI50 (XF498): > 100 µM (inactive); GI50 (HOP-18): > 100 µM (inactive)
Cc1nc(O)c(Cc2ccccc2O)c(-c2ccccc2)n1,–,–,–,–,–,> 100 µM (inactive),–
O=C(O)CC/C(=N\Nc1nsc2ccccc12)c1ccc(Cl)cc1,–,35 µM (inactive),20 µM (inactive),31.6 µM (inactive),25 µM (inactive),33.3 µM (inactive),GI50 (HOP-18): 4.19 µM (inactive)
CCOC(=O)c1ccc(NC(NC(=O)CC)(C(F)(F)F)C(F)(F)F)cc1,–,–,–,–,–,> 100 µM (inactive),–
CCCCCCCC/C=C\CCCCCCC/C=C1\C[C@](/C=C/C(=O)OC)(CO)OC1=O,–,–,–,–,–,1.25 µM (inactive),–
CCOC(=O)c1c[nH]c2cc3c(cc2c1=O)CCS3,–,–,–,–,–,> 100 µM (inactive),–
CCOC(=O)Nc1cc(NC(/C=N/NC(C)=O)C(=O)OCC)c(OC)cc1NC(C)=O (stereo unspecified),–,–,–,–,–,> 100 µM (inactive),–
COC(=O)NC(Cc1ccccc1)NC(=O)OC(C)(C)C (stereo unspecified),–,–,–,–,–,> 100 µM (inactive),–
CCc1cccc(C(C)C)c1NC1=C([n+]2ccc(C)cc2)C(=O)c2ccccc2C1=O.[O-][Cl+3]([O-])([O-])[O-],–,–,–,–,–,12.8 µM (inactive),–
